As usually defined, the EC50 is the concentration needed to bring the measured effect to its halfway point. The term Emax denotes the maximal effect, on the per cent scale that the assay sets.

Drawing on patent publication US10988523B2, “Modified lipidated Relaxin B chain peptides and their therapeutic use” (Sanofi, priority 2018, dated 2021), this text covers EC50 and Emax for six molecules.

*1 amine or outer side, *2 acyl side, *3 side chain or, on linkers, in order; H or OH if unused. Where a SMILES comes first, the peptide text is derived from it. Side-chain parts run from the residue outwards. [ ]: non-standard residue; d: D form. The star is where a group is joined. X9 = CCCCCCCCCCCCCCCCCC(=O)N[C@@H](CCC(=O)N[C@@H](CCC(=O)N[C@@H](CCC(=O)NCCCC[C@H](NC(=O)COCC(=O)NCCCOCCOCCOCCCN*)C(N)=O)C(=O)O)C(=O)O)C(=O)O; γGlu = O=C(O)[C@H](CCC(=O)[*:2])N[*:1]; Stearoyl = CCCCCCCCCCCCCCCCCC(=O)*; Palmitoyl = CCCCCCCCCCCCCCCC(=O)*; Nle = CCCC[C@H](N)C(=O)O; AEEA = NCCOCCOCC(=O)O; Aib = CC(C)(N)C(=O)O

The experiment concerns the target T1, RXFP1 (Homo sapiens, UniProt Q9HBX9).
T1 construct: OVCAR5 cells expressing endogenous RXFP1; endogenous in cells; host or cells: OVCAR5 cells
T1 sequence (Q9HBX9 1-757): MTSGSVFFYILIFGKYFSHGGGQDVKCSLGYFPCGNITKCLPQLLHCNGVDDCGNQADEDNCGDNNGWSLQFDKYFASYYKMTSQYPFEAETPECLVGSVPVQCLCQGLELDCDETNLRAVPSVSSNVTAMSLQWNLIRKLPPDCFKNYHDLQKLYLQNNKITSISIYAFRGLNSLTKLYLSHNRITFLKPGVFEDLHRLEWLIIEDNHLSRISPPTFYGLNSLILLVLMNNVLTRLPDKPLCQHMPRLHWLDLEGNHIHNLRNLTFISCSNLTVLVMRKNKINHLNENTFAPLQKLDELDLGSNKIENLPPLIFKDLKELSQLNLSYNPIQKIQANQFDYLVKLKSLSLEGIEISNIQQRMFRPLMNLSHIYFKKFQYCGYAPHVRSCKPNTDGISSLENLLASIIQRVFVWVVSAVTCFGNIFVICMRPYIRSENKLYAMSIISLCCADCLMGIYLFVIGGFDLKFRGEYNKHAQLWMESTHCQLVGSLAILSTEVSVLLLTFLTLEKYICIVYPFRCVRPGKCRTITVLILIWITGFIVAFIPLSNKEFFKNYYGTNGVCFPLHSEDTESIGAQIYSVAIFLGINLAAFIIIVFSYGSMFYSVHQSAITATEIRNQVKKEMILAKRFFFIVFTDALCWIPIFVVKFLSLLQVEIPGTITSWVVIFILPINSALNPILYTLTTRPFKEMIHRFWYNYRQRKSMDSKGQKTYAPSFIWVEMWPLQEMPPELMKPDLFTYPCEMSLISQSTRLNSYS
In words: OVCAR5 cAMP assay (HTRF), RXFP1 agonist activity. The following applies: for EC50: OVCAR5 cells, cAMP HTRF, read-out: EC50 (nM), OVCAR 5 cells (cAMP); for Emax: OVCAR-5, maximal cAMP relative to H2-relaxin maximum (100%), read-out: EMax, OVCAR 5 cells (cAMP). It is filed as cell-based. In short, it runs like this:
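cAMP accumulation readout: after 1 mM IBMX for 40 min, endogenous-RXFP1 OVCAR5 cells got rising peptide concentrations without FCS, 30 min, 37° C, then lysis with HTRF cAMP reagents. Nonlinear regression gave EC50; Emax expressed relative to H2-relaxin maximum, same occasion.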
In general terms: cAMP levels reflect the balance of adenylyl cyclase and phosphodiesterase activity.

Take `CCCCCCCCCCCCCCCCCC(=O)N[C@@H](CCC(=O)N[C@@H](CCC(=O)N[C@@H](CCC(=O)N[C@@H](CCC(=O)NCCOCCOCC(=O)NCCOCCOCC(=O)NCCOCCOCC(=O)NCCCC[C@H](NC(=O)[C@H](CCCCN)NC(=O)[C@H](CCCCN)NC(=O)[C@H](CCCNC(=N)N)NC(=O)C(C)(C)NC(=O)[C@H](CO)NC(=O)[C@H](Cc1c[nH]c2ccccc12)NC(=O)[C@@H](NC(=O)[C@H](CO)NC(=O)[C@H](CCCC)NC(=O)CNC(=O)[C@H](CCC(=O)O)NC(=O)C(C)(C)NC(=O)C(C)(C)NC(=O)[C@@H](NC(=O)[C@H](CCC(N)=O)NC(=O)[C@H](C)NC(=O)[C@H](CCCNC(=N)N)NC(=O)[C@@H](NC(=O)[C@H](CCCCN)NC(=O)[C@H](CCC(=O)O)NC(=O)[C@H](CCCNC(=N)N)NC(=O)CNC(=O)[C@H](CCC(=O)O)NC(=O)[C@H](CC(C)C)NC(C)=O)C(C)C)[C@@H](C)CC)[C@@H](C)O)C(N)=O)C(=O)O)C(=O)O)C(=O)O)C(=O)O` [compound 88] (Ac-LEGREKVRAQI[Aib][Aib]EG[Nle]STWS[Aib]RKKK([AEEA-AEEA-AEEA-γGlu-γGlu-γGlu-γGlu-Stearoyl])-NH2): the EC50 amounted to 0.11 nM and the maximum response (Emax) was determined as 74%.
For `CCCCCCCCCCCCCCCC(=O)N[C@@H](CCC(=O)NCCCC[C@H](NC(=O)CC[C@H](NC(=O)CC[C@H](NC(=O)COCCOCCNC(=O)COCCOCCNC(=O)COCCOCCNC(=O)[C@H](CCCCNC(C)=O)NC(=O)[C@H](CCCCN)NC(=O)[C@H](CCCNC(=N)N)NC(=O)C(C)(C)NC(=O)[C@H](CO)NC(=O)[C@H](Cc1c[nH]c2ccccc12)NC(=O)[C@@H](NC(=O)[C@H](CO)NC(=O)[C@H](CCCC)NC(=O)CNC(=O)[C@H](CCC(=O)O)NC(=O)C(C)(C)NC(=O)C(C)(C)NC(=O)[C@@H](NC(=O)[C@H](CCCCNC(C)=O)NC(=O)[C@H](C)NC(=O)[C@H](CCCNC(=N)N)NC(=O)[C@@H](NC(=O)[C@H](CCCCN)NC(=O)[C@H](CCC(=O)O)NC(=O)[C@H](CCCNC(=N)N)NC(=O)CNC(=O)[C@H](CCC(=O)O)NC(=O)[C@H](CC(C)C)NC(C)=O)C(C)C)[C@@H](C)CC)[C@@H](C)O)C(=O)O)C(=O)O)C(N)=O)C(=O)O` [compound 117] (Ac-LEGREKVRAK(Ac)I[Aib][Aib]EG[Nle]STWS[Aib]RKK(Ac)[AEEA][AEEA][AEEA][γGlu][γGlu]K([γGlu-Palmitoyl])-NH2), the maximal response (Emax) was found to be 86%.
The same measure, in the same setting: the value for `CCCCCCCCCCCCCCCCCC(=O)NCCOCCOCC(=O)NCCOCCOCC(=O)NCCOCCOCC(=O)NCCCC[C@H](NC(=O)[C@H](CCCCNC(C)=O)NC(=O)[C@H](CCCCN)NC(=O)[C@H](CCCNC(=N)N)NC(=O)C(C)(C)NC(=O)[C@H](CO)NC(=O)[C@H](Cc1c[nH]c2ccccc12)NC(=O)[C@@H](NC(=O)[C@H](CO)NC(=O)[C@H](CCCC)NC(=O)CNC(=O)[C@H](CCC(=O)O)NC(=O)C(C)(C)NC(=O)C(C)(C)NC(=O)[C@@H](NC(=O)[C@H](CCC(N)=O)NC(=O)[C@H](C)NC(=O)[C@H](CCCNC(=N)N)NC(=O)[C@@H](NC(=O)[C@H](CCCCN)NC(=O)[C@H](CCC(=O)O)NC(=O)[C@H](CCCNC(=N)N)NC(=O)CNC(=O)[C@H](CCC(=O)O)NC(=O)[C@H](CC(C)C)NC(C)=O)C(C)C)[C@@H](C)CC)[C@@H](C)O)C(N)=O` [compound 52] (Ac-LEGREKVRAQI[Aib][Aib]EG[Nle]STWS[Aib]RKK(Ac)K([AEEA-AEEA-AEEA-Stearoyl])-NH2) was 98%.
`CCCCCCCCCCCCCCCCCC(=O)N[C@@H](CCC(=O)N[C@@H](CCC(=O)N[C@@H](CCC(=O)NCCCC[C@H](NC(=O)COCC(=O)NCCCOCCOCCOCCCNC(=O)[C@H](CCCCNC(C)=O)NC(=O)[C@H](CCCCN)NC(=O)[C@H](CCCNC(=N)N)NC(=O)C(C)(C)NC(=O)[C@H](CO)NC(=O)[C@H](Cc1c[nH]c2ccccc12)NC(=O)[C@@H](NC(=O)[C@H](CO)NC(=O)[C@H](CCCC)NC(=O)CNC(=O)[C@H](CCC(=O)O)NC(=O)C(C)(C)NC(=O)C(C)(C)NC(=O)[C@@H](NC(=O)[C@H](CCCCNC(C)=O)NC(=O)[C@H](C)NC(=O)[C@H](CCCNC(=N)N)NC(=O)[C@@H](NC(=O)[C@H](CCCCN)NC(=O)[C@H](CCC(=O)O)NC(=O)[C@H](CCCNC(=N)N)NC(=O)CNC(=O)[C@H](CCC(=O)O)NC(=O)[C@H](CC(C)C)NC(C)=O)C(C)C)[C@@H](C)CC)[C@@H](C)O)C(N)=O)C(=O)O)C(=O)O)C(=O)O` [compound 18] (Ac-LEGREKVRAK(Ac)I[Aib][Aib]EG[Nle]STWS[Aib]RKK(Ac)-X9): the half-maximal effective concentration (EC50) amounted to 0.41 nM and the maximum response (Emax) worked out at 83%.
Consider `CCCCCCCCCCCCCCCC(=O)N[C@@H](CCC(=O)NCCCC[C@H](NC(=O)CC[C@H](NC(=O)CC[C@H](NC(=O)COCCOCCNC(=O)COCCOCCNC(=O)COCCOCCNC(=O)COCCOCCNC(=O)[C@H](CCCCNC(C)=O)NC(=O)[C@H](CCCCN)NC(=O)[C@H](CCCNC(=N)N)NC(=O)C(C)(C)NC(=O)[C@H](CO)NC(=O)[C@H](Cc1c[nH]c2ccccc12)NC(=O)[C@@H](NC(=O)[C@H](CO)NC(=O)[C@H](CCCC)NC(=O)CNC(=O)[C@H](CCC(=O)O)NC(=O)C(C)(C)NC(=O)C(C)(C)NC(=O)[C@@H](NC(=O)[C@H](CCC(N)=O)NC(=O)[C@H](C)NC(=O)[C@H](CCCNC(=N)N)NC(=O)[C@@H](NC(=O)[C@H](CCCCN)NC(=O)[C@H](CCC(=O)O)NC(=O)[C@H](CCCNC(=N)N)NC(=O)CNC(=O)[C@H](CCC(=O)O)NC(=O)[C@H](CC(C)C)NC(C)=O)C(C)C)[C@@H](C)CC)[C@@H](C)O)C(=O)O)C(=O)O)C(N)=O)C(=O)O` [compound 121] (Ac-LEGREKVRAQI[Aib][Aib]EG[Nle]STWS[Aib]RKK(Ac)[AEEA][AEEA][AEEA][AEEA][γGlu][γGlu]K([γGlu-Palmitoyl])-NH2), for which the Emax is 91%.
Still for that read-out and setting: in the case of `CCCCCCCCCCCCCCCC(=O)N[C@@H](CCC(=O)NCCCC[C@H](NC(=O)CC[C@H](NC(=O)CC[C@H](NC(=O)COCCOCCNC(=O)COCCOCCNC(=O)[C@H](CCCCNC(C)=O)NC(=O)[C@H](CCCCN)NC(=O)[C@H](CCCNC(=N)N)NC(=O)C(C)(C)NC(=O)[C@H](CO)NC(=O)[C@H](Cc1c[nH]c2ccccc12)NC(=O)[C@@H](NC(=O)[C@H](CO)NC(=O)[C@H](CCCC)NC(=O)CNC(=O)[C@H](CCC(=O)O)NC(=O)C(C)(C)NC(=O)C(C)(C)NC(=O)[C@@H](NC(=O)[C@H](CCC(N)=O)NC(=O)[C@H](C)NC(=O)[C@H](CCCNC(=N)N)NC(=O)[C@@H](NC(=O)[C@H](CCCCN)NC(=O)[C@H](CCC(=O)O)NC(=O)[C@H](CCCNC(=N)N)NC(=O)CNC(=O)[C@H](CCC(=O)O)NC(=O)[C@H](CC(C)C)NC(C)=O)C(C)C)[C@@H](C)CC)[C@@H](C)O)C(=O)O)C(=O)O)C(N)=O)C(=O)O` [compound 118] (Ac-LEGREKVRAQI[Aib][Aib]EG[Nle]STWS[Aib]RKK(Ac)[AEEA][AEEA][γGlu][γGlu]K([γGlu-Palmitoyl])-NH2) it was 86%.
